Assay [1] in a line: Inhibition of ferrous/ascorbate induced lipid peroxidation of microsomal membrane lipids. The assay is classed as functional.
The nature of assay [2]: Inhibition of HMG-CoA synthase.
For a further assay, the species on record is Oryctolagus cuniculus. As to the kind of experiment: Decrease in aortic arch lesions in cholesterol fed rabbit. The assay is classed as functional. Further details: scale not given: the % may be the effect or the level left.
Assay [3] relates to Rattus norvegicus. As to the kind of experiment: Inhibition of cholesterol biosynthesis in po dosed Sprague-Dawley rat. The assay is classed as functional.
Assay [4] has as its system Rattus norvegicus. As to the kind of experiment: Reduction in LDL cholesterol in rat plasma at 20 mg/kg, po qd for 7 days. The assay is classed as functional. Also on record: scale not given: the % may be the effect or the level left.
For assay [5], the species on record is Rattus norvegicus. As to the kind of experiment: Inhibition of [14C]cholesterol synthesis in rat liver after 1 hr. It is filed as functional.
The nature of assay [6]: Inhibition of rat liver microsomal squalene synthase. A general note: Liver microsomes are a subcellular fraction often used to study metabolism.
The target of another assay is T1, Lanosterol synthase (Candida albicans (strain SC5314 / ATCC MYA-2876) (Yeast), UniProt Q04782).
T1 sequence (Q04782 whole entry): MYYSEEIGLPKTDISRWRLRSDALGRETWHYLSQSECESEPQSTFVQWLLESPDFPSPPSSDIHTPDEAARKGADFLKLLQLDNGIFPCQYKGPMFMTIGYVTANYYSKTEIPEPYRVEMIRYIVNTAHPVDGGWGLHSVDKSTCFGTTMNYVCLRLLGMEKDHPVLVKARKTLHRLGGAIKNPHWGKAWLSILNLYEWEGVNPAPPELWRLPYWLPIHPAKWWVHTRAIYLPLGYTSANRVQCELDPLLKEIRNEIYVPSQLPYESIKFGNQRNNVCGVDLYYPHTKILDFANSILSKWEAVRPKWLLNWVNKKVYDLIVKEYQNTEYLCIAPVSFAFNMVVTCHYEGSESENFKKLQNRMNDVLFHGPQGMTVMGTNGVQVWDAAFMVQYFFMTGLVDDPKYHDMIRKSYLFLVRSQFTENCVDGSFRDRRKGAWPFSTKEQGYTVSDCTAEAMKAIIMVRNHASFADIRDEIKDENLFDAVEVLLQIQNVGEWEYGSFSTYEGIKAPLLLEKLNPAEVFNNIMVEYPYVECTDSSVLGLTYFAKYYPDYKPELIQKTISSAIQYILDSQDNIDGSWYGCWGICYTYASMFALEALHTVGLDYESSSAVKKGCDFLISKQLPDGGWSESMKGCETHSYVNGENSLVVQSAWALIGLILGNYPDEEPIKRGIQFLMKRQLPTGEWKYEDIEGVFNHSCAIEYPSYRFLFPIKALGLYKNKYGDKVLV

A short description of assay [7]: Inhibition of pig OSC. Further details: species or system Sus scrofa.
The target of assay [8] is T2, Pancreatic triacylglycerol lipase (Homo sapiens, UniProt P16233).
T2 sequence (P16233 whole entry): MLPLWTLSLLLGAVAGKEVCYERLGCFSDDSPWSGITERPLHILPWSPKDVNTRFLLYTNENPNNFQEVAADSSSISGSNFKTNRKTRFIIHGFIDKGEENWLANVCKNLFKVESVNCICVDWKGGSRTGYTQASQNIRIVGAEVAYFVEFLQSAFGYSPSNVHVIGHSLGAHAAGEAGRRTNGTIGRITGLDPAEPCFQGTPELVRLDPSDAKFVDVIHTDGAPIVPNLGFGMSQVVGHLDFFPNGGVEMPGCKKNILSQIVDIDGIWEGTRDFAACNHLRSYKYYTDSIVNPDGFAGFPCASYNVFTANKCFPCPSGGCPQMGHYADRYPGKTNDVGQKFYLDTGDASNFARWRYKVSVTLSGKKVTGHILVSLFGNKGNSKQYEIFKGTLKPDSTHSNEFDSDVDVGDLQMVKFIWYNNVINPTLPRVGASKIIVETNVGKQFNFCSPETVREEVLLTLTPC
As to the kind of experiment: Inhibition of pancreatic lipase.

Assay [9] has as its target T3, Lanosterol 14-alpha demethylase (Rattus norvegicus, UniProt Q64654).
T3 sequence (Q64654 whole entry): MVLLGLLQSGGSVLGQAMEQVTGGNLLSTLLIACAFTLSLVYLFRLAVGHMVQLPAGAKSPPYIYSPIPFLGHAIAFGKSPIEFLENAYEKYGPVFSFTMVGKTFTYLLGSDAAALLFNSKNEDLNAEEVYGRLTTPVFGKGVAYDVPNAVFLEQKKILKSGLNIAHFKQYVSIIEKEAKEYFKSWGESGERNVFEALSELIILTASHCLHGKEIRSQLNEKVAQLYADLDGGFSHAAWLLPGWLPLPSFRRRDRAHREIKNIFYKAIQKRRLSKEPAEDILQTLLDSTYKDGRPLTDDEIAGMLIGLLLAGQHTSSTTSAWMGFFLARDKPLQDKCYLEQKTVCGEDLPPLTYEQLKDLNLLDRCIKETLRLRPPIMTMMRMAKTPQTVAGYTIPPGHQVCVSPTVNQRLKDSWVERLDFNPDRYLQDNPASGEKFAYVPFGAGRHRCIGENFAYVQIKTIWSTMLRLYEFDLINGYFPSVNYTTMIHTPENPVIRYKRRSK
As to the kind of experiment: Inhibition of rat liver LDM.

Assay [10] addresses T4, 3-hydroxy-3-methylglutaryl-coenzyme A reductase (Homo sapiens) (UniProt P04035).
T4 sequence (whole entry): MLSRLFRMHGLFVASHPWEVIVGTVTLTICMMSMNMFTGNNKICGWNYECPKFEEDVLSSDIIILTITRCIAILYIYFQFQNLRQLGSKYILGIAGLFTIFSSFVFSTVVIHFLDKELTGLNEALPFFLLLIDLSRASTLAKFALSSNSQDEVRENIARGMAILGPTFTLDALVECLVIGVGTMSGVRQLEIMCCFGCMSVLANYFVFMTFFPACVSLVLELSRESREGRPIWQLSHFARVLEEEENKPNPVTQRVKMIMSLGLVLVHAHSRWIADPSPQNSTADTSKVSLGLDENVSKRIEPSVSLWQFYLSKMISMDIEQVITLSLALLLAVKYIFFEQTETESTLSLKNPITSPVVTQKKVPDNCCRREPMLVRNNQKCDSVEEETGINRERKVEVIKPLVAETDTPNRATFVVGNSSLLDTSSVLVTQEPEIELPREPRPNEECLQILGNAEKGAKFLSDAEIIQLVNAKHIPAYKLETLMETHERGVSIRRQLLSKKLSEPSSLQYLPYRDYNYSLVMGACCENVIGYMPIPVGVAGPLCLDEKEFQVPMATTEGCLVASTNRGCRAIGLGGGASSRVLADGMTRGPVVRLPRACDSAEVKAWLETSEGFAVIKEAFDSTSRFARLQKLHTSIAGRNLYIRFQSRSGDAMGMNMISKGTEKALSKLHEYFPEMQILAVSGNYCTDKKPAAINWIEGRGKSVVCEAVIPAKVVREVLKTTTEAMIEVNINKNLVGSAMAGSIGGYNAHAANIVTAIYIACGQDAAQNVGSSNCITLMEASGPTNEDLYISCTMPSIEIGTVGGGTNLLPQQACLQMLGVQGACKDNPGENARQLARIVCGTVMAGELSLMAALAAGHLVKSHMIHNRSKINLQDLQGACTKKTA
As to the kind of experiment: Inhibition of HMG-CoA reductase relative to control. The settings on record: concentration not given here.

For assay [11], the target named is T5, Lanosterol 14-alpha demethylase (Homo sapiens, UniProt Q16850).
T5 sequence (Q16850 whole entry): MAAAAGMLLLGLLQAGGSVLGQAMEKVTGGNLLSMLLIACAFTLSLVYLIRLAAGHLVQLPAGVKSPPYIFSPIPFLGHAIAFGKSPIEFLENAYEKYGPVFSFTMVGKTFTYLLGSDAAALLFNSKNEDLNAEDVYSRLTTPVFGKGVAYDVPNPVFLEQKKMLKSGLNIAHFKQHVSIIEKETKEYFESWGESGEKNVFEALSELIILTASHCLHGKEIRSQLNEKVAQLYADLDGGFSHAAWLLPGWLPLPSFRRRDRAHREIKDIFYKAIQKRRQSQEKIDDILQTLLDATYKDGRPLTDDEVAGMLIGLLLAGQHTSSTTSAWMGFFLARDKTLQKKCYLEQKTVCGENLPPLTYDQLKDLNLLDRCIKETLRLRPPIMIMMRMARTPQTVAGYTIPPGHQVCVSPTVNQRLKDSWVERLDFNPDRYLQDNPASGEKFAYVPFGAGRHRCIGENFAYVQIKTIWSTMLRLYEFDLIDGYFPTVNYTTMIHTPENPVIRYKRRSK
As to the kind of experiment: Inhibition of LDM in human HepG2 cells at 2 nM. The assay is classed as cell-based.

A further assay has as its system Rhesus monkey. As to the kind of experiment: Decrease in nonHDL-C level in rhesus monkey plasma at 50 mg/kg, bid for 21 days. It is filed as functional, Macaca mulatta. Further details: scale not given: the % may be the effect or the level left.
The species named for assay [12] is Rattus norvegicus. As to the kind of experiment: Inhibition of cholesterol synthesis in rat. It is filed as functional.
The test system of assay [13] is HepG2. As to the kind of experiment: Inhibition of fatty acid synthesis in human HepG2 cells. It is filed as functional.
For assay [14], the species on record is Rattus norvegicus. As to the kind of experiment: Inhibition of fatty acid synthesis in rat. The assay is classed as functional.
In assay [15] the test system is HepG2. As to the kind of experiment: Inhibition of cholesterol synthesis in human HepG2 cells. It is filed as functional.
The species named for assay [16] is Rattus norvegicus. As to the kind of experiment: Reduction of cholesterol absorption in normal diet fed rat. It is filed as functional.

The structures appear in SMILES notation.

Description for Lanosterol synthase: Inhibition of Candida albicans OSC

What is called IC50 is the concentration needed to halve the response being measured. `CN1CC(O)(c2ccc(-c3ccccc3)cc2)OC2CCCCC21` (centres undefined): the 50% inhibitory concentration (IC50) in [1] was found to be 250000 nM.
Consider `C/C=C/CCCC/C=C/C(=O)NC(CC1(O)C(=O)C2OC2C2OC21)C(=O)OC` (centres undefined), for which, in [2], half-maximal inhibition (IC50) was put at 150 nM.
`CCC(CC)CC1(C(=O)Nc2ccccc2SC(=O)C(C)C)CCCCC1` [DALCETRAPIB] yielded an Activity in the assay filed under Oryctolagus cuniculus of 70%.
Take `C/C=C/CCCC/C=C/C(=O)N[C@H](C[C@]1(O)C(=O)C2OC2C2OC21)C(=O)OC` (some centres undefined): in [2], the IC50 turned out to be 98 nM.
Turning to `COc1ccccc1/C(C)=C/CN(C)CCCC(P(=O)(O)OCOC(=O)C(C)(C)C)P(=O)(OCOC(=O)C(C)(C)C)OCOC(=O)C(C)(C)C` (centres undefined), in the assay on Rattus norvegicus [3], the ED50 was 1.6 mg/kg.
In turn, `O[C@]1(c2ccc(-c3ccc4ncccc4c3)cc2)CN2CCC1CC2` yielded an Activity in the assay on Rattus norvegicus [4] of 50%. For the same molecule, in the assay listed under Rattus norvegicus [5], the ED50 was 5 mg/kg. For the same molecule, in assay [6], the IC50 was determined as 0.6 nM.
For orientation: Ki means a dissociation constant, usually derived from enzyme kinetics or from competition with a known ligand. In the case of `CC(C)=CCCC(C)SCC/C(C)=C/CC/C=C(\C)CC/C=C(\C)CCC1OC1(C)C` (centres undefined), the IC50 against Lanosterol synthase was 0.22 nM. Besides, in assay [7], inhibition was half-maximal at 50 nM (IC50) and affinity was put at a Ki of 500 nM.
Consider `CC(C)c1cc2c(c(O)c1O)[C@@]13CCCC(C)(C)[C@@H]1C[C@@H]2OC3=O` [CARNOSOL], for which the IC50 in assay [8] was 13000 nM.
In [9], `CC(C)CCC[C@@H](C)[C@H]1C/C(=N\O)[C@@]2(C)[C@@H]3CC[C@@]4(C)C[C@@H](O)CC[C@]4(O)[C@H]3CC[C@]12C` returned an IC50 of 55000 nM.
In assay [2], `C/C=C/CCCC/C=C/C(=O)N[C@@H](C[C@@]1(O)C(=O)C2OC2C2OC21)C(=O)OC` (some centres undefined) showed an IC50 of 31000 nM.
For the molecule `O[C@@]1(c2ccc(-c3ccc4ncccc4c3)cc2)CN2CCC1CC2`, the Activity with Rattus norvegicus [4] worked out at 43%. The molecule also came in with an ED50 in the assay filed under Rattus norvegicus [5] of 5 mg/kg. In [6], this molecule registered a half-inhibitory concentration (IC50) of 0.6 nM.
`CCOc1ccc(CC(=O)OC[C@@H]2[C@H](CC)C(=O)N2Cc2ccc(S(=O)(=O)O)cc2)cc1OCC` had an IC50 in [2] of 2 nM.
Broadly, the inhibition is the percentage by which the read-out fell short of the control. The molecule `CC(C)CCC[C@@H](C)[C@H]1C=C[C@@]2(CC(=O)O)C3=C(CC[C@]12C)[C@@]1(C)CC[C@H](O)C(C)(C)[C@@H]1CC3` registered an inhibition in [10] of 30%. Also, the inhibition at 0.002 µM in [11] amounted to 50%.
Turning to `F/C(COc1ccc2c(c1)[nH]c1ccccc12)=C1/CN2CCC1CC2`, the ED50 in the assay listed under Rattus norvegicus [5] amounted to 32 mg/kg. The molecule further returned an Activity with Rhesus monkey of 37%.
Usually Inhibition stands for the percentage by which the read-out fell short of the control. Take `O=C(O)C[C@@]1(O)C[C@@H](CCCCCCc2ccc(Cl)cc2Cl)OC1=O`: the Inhibition in the assay listed under Rattus norvegicus [12] is 76%; with HepG2 [13], 82%; in the assay listed under Rattus norvegicus [14], 39%; in the assay with HepG2 [15] it was 91%.
`COc1ccccc1/C(C)=C/CN(C)CCCC(P(=O)(O)O)P(=O)(O)O`: in [6], the IC50 amounted to 3.6 nM.
For the molecule `CC1CCN(C(=O)Oc2ccc(Oc3ccccc3)cc2)CC1`, in the assay listed under Rattus norvegicus [16], the ED50 was 10 mg/kg.
In assay [8], `CC(C)c1cc2c(c(O)c1O)[C@@]1(C(=O)O)CCCC(C)(C)[C@@H]1CC2` [CARNOSIC ACID] showed an IC50 of 36000 nM.

The values above are taken from ChEMBL document CHEMBL1140634, “The biology and chemistry of hyperlipidemia” (Bioorg Med Chem, 2007).
